Measured values taken from patent US20240269145A1, “USE OF INDOLE COMPOUND AS INHIBITORS OF FERROPTOSIS” (MITOIMMUNE THERAPEUTICS INC., priority 2023, published 2024).

How the values were obtained:
H9C2 cells [1] = assay: Mitochondrial morphological changes (TEM) after erastin; assay type: cell-based; settings: H9C2, 5 μM erastin, 10 μM compound, 5 hours
Description: To confirm whether Example Compound 1 may inhibit mitochondrial morphological changes due to ferroptosis, an experiment was performed using a transmission electron microscope (TEM). To collect cardiac cell samples, 1.3×10^6 H9C2 cells were cultured in a 150 mm cell culture dish for 4 days, and the culture medium was replaced with fresh culture medium on the second day. After treating the cells with Example Compound 1 at a final concentration of 10 µM for 30 minutes, an erastin-only treatment group was treated with a culture medium including 5 μM erastin; an erastin-Example Compound 1 treatment group was treated with a culture medium including 5 μM erastin and 10 μM Example Compound 1; and the V.C group was treated with a culture medium including the same amount of DMSO, and each group was treated for 5 hours. Afterwards, the supernatant was discarded, and the cells were washed with a 37° C. PBS solution three times. 10 mL of a 2.5% glutaraldehyde solution diluted in PBS was added and treated at room temperature for 1 hour. After washing with PBS solution three times, the remaining PBS solution was completely removed using an aspirator. 1 mL of PBS solution was added to recover the cells with a plastic scraper, and the cells were transferred to a 1.5 mL tube. Cells were allowed to settle using a centrifuge (3000 rpm) for 5 minutes. […]

H9C2 cells [2] = assay: Mitochondrial iron ion accumulation (Mito-FerroGreen, images) after erastin; assay type: cell-based; settings: H9C2, erastin 5 μM, 5 hr; Example Compound 1 1 μM, DFO 100 μM
Description: [The source words this procedure for another cell line and says it was used here with some conditions changed.] Experimental Example 9-1: To confirm the inhibitory effect against mitochondrial iron ion accumulation in lung epithelial cells and adrenal medulla cells, 3×10^5 MLE-12 cells and PC-12 cells were each dispensed into a confocal dish and cultured for 18 to 24 hours. Each well was treated with Example Compound 1 and DFO, which were diluted so that their final concentration became 1 μM and 10 μM, respectively, and culture was performed for 20 minutes. Afterwards, the MLE-12 cells were treated with RSL3 so that the final concentration became 1 μM, and cultured for 1 hour and 30 minutes, and the PC-12 cells were treated with RSL3 so that the final concentration became 0.3 μM, and cultured for 30 minutes. To confirm the inhibitory effect against mitochondrial iron ion accumulation, Mito-FerroGreen [DOJINDO; M489] was used. According to the manufacturer's experimental method, Mito-FerroGreen was diluted in the cell culture medium so that the final concentration became 1 μM, and the cells were treated therewith and allowed to react for 30 minutes to perform fluorescent staining. The cells fluorescently stained with Mito-FerroGreen were observed using a fluorescence microscope [Carl Zeiss; Axio Observer 7] to investigate the change in fluorescence (excitation/absorption 450 to 490 nm/500 to 550 nm) compared to the control group (RSL3 untreated group). […]

## O=S1(=O)CCN(Cc2cc(NC3CCOCC3)c3[nH]c(-c4ccccc4)cc3c2)CC1 [Example 1, 5-[(1,1-dioxido-4-thiomorpholinyl)methyl]-2-phenyl-N-(tetrahydro-2H-pyran-4-yl)-1H-indole-7-amine]
H9C2 cells [1]
  mitochondrial morphological changes (size decrease, cristae loss, outer membrane collapse), TEM: alleviated
H9C2 cells [2]
  mitochondrial iron ion accumulation (images): inhibited
